Source: PubChem BioAssay (NCI)
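Five concentrations, 48 hours, 96-well plates. Here, GI50 denotes the concentration required for 50% inhibition of growth. TGI marks complete inhibition of growth.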

Assays:
Test in all cases: NCI tumour cell line growth inhibition, 48 h
786-0 renal = tested on: 786-0 renal
MDA-MB-231 breast = tested on: MDA-MB-231 breast
NCI/ADR-RES ovarian = tested on: NCI/ADR-RES ovarian
SNB-75 CNS = tested on: SNB-75 CNS
MOLT-4 leukemia = tested on: MOLT-4 leukemia
HOP-62 NSCLC = tested on: HOP-62 NSCLC
M14 melanoma = tested on: M14 melanoma
DU-145 prostate = tested on: DU-145 prostate
HCT-15 colon = tested on: HCT-15 colon
SK-OV-3 ovarian = tested on: SK-OV-3 ovarian
DLD-1 colon = tested on: DLD-1 colon

| Structure (SMILES) | TGI (786-0 renal) [µM] | TGI (MDA-MB-231 breast) [µM] | TGI (NCI/ADR-RES ovarian) [µM] | TGI (SNB-75 CNS) [µM] | TGI (MOLT-4 leukemia) [µM] | TGI (HOP-62 NSCLC) [µM] | TGI (M14 melanoma) [µM] | TGI (DU-145 prostate) [µM] | TGI (HCT-15 colon) [µM] | TGI (SK-OV-3 ovarian) [µM] | TGI (DLD-1 colon) [µM] | GI50 (MDA-MB-231 breast) [µM] | GI50 (NCI/ADR-RES ovarian) [µM] | GI50 (SNB-75 CNS) [µM] | GI50 (MOLT-4 leukemia) [µM] | GI50 (HOP-62 NSCLC) [µM] | GI50 (M14 melanoma) [µM] | GI50 (HCT-15 colon) [µM] | GI50 (SK-OV-3 ovarian) [µM] | GI50 (DU-145 prostate) [µM] |
| --- | --- | --- | --- | --- | --- | --- | --- | --- | --- | --- | --- | --- | --- | --- | --- | --- | --- | --- | --- | --- |
| O=c1cc(O)c2ccccc2o1 | > 100 | > 100 | > 100 | > 100 | > 100 | > 100 | > 100 | > 100 | – | – | – | – | – | – | – | – | – | – | – | – |
| CCOC(=O)NC | > 100 | > 100 | > 100 | > 100 | – | > 100 | > 100 | > 100 | > 100 | > 100 | – | – | – | – | – | – | – | – | – | – |
| CC1(O)CC23CC1CCC2(C)C12CCCC(C)(C(=O)O1)C2CC3O (stereo not drawn) | > 100 | > 100 | > 100 | > 100 | – | – | > 100 | > 100 | > 100 | > 100 | – | – | – | – | – | – | – | – | – | – |
| COc1cc(O)c2c(c1)C(=O)c1cc(C)cc(O)c1C2=O | – | – | – | > 100 | > 100 | > 100 | > 100 | – | – | > 100 | > 100 | – | – | – | – | – | – | – | – | – |
| O=C1c2ccccc2C(=O)c2c1ccc(C(=O)O)c2-c1ccc2ccccc2c1 | > 100 | 73.9 | > 100 | – | 53 | > 100 | 54.1 | 46.6 | 56.6 | > 100 | – | – | – | – | – | – | – | – | – | – |
| Cc1cc(=O)oc2c1cc(OCC(=O)OCCN1CCCCC1)c1occ(C)c12 | > 100 | – | – | > 100 | > 100 | – | > 100 | – | > 100 | – | > 100 | – | – | – | – | – | – | – | – | – |
| Nc1nnc(N)n1NC(=O)C(=O)Nc1ccc([N+](=O)[O-])cc1 | – | – | – | > 100 | > 100 | > 100 | – | – | > 100 | > 100 | > 100 | – | – | – | – | – | – | – | – | – |
| COc1cc(C)c2c(=O)c3c(oc2c1)C(=O)c1c(O)c(OC)cc(O)c1C3=O | – | – | 2.62 | 3.84 | 4.6 | 3.98 | – | – | 3.79 | 3.98 | 10.1 | – | – | – | – | – | – | – | – | – |
| Fc1ccc(-c2nnc3sc(COc4ccccc4Cl)nn23)cc1Cl | – | > 100 | > 100 | > 100 | > 100 | > 100 | > 100 | > 100 | 48.7 | > 100 | – | 44.5 | 40.8 | 47.3 | 24.5 | 49.5 | 34.9 | 17.7 | 93.3 | 29.8 |
| c1ccc2sc(SCN(C3CCCCC3)C3CCCCC3)nc2c1 | – | > 100 | > 100 | – | > 100 | > 100 | > 100 | > 100 | > 100 | – | – | – | – | – | – | – | – | – | – | – |
| O=C(O)C1=NNC(C(=O)O)=NN1 | > 100 | – | – | > 100 | > 100 | – | > 100 | – | > 100 | > 100 | > 100 | – | – | – | – | – | – | – | – | – |
| NC(=O)Nc1cc(O)ccc1N=Nc1ccc(S(=O)(=O)Nc2ccccn2)cc1 | – | – | – | > 100 | > 100 | > 100 | > 100 | – | > 100 | > 100 | – | – | – | – | – | – | – | – | – | – |
| COc1c(Cl)cc(S(=O)O)cc1Cl | – | – | – | > 100 | > 100 | > 100 | > 100 | – | – | > 100 | > 100 | – | – | – | – | – | – | – | – | – |
